Consider two molecules from paper PMC4198181, “Gold(I) Complexes of 9-Deazahypoxanthine as Selective Antitumor and Anti-Inflammatory Agents” (PLoS ONE, 2014).

Broadly, the IC50 is the concentration needed to halve the response being measured.

The test system of assay [1] is A2780 ovarian carcinoma cells. Put plainly: MTT in vitro cytotoxicity, A2780. Type of assay: cell-based, human. As to conditions: 24 h treatment, read-out: IC50±S.E., A2780. How it is done: (§1) In vitro cytotoxic activity was determined by the MTT assay in human breast adenocarcinoma (MCF7; ECACC no. 86012803), human osteosarcoma (HOS; ECACC no. 87070202), lung carcinoma (A549; ECACC no. 86012804), malignant melanoma (G361; ECACC no. 88030401), cervix epitheloid carcinoma (HeLa; ECACC no. 93021013), ovarian carcinoma (A2780; ECACC no. 93112519), cisplatin-resistant ovarian carcinoma (A2780R; […] ECACC no 105092802) cancer cell lines, purchased from European Collection of Cell Cultures (ECACC). […] The primary culture of human hepatocytes (HEP220, batch number HEP220819) was obtained from Biopredic International (France). The culture medium was Williams and HAM's F-12 (1∶1) supplemented with penicillin, streptomycin, ascorbic acid, linoleic acid, holo-transferin, ethanolamine, glucagon, insulin, dexamethasone, pyruvate, glucose, glutamine, amphotericin. The medium was enriched for plating with 2% foetal calf serum (v/v). The medium was exchanged for a serum-free medium the day after and the culture was stabilized for additional 24 h. Thereafter, the cells were ready for treatments. […] The MTT assay was performed spectrophotometrically at 540 nm (TECAN, Schoeller Instruments LLC). The cytotoxicity data were expressed as the percentage of viability, where 100% represented the treatments with vehicle (0.1% DMF or 0.1% DMSO). The cytotoxicity data from the cancer cell lines were acquired from three independent experiments (conducted in triplicate) using cells from different passages. The IC50 values were calculated from viability curves. The results are presented as arithmetic means±standard error of the mean (S.E.).

For assay [2], the system named is IκB-α degradation (NF-κB signalling pathway). As to the kind of experiment: LPS-induced IκB-α degradation (Western blot) in THP-1 macrophages. Format: cell-based, human. As to conditions: 300 nM, 30 min after LPS. The method, then: Macrophage-like THP-1 cells were pretreated with the tested compounds and stimulated by LPS as was describe above. Thirty minutes after the addition of LPS, the medium was aspirated and cells were washed by cold phosphate buffer solution (PBS). Subsequently, the cells were collected using the lysis buffer [50 mM Tris-HCl pH 7.5, 1 mM EGTA, 1 mM EDTA, 1 mM sodium orthovanadate, 50 mM sodium fluoride, 5 mM sodium pyrophosphate, 270 mM sucrose, 0.1% (v/v) Triton X-100, and cOmplete Protease Inhibitor Cocktail (Roche, Germany)] and scraper. The lysis of cells was facilitated by a short (≈30 s) incubation in the ultrasonic water bath. The protein concentration was determined according to Bradford's method. For protein separation, 30 µg of protein was loaded onto the 12% polyacrylamide gel. […] The membranes were incubated with the primary anti-IκB-α antibody at the concentration ratio of 1∶500, or with the primary anti-β-actin at the concentration ration of 1∶5 000 at 4°C for 16 h. After washing, the secondary anti-mouse IgG antibody diluted 1∶2 000 was applied on the membranes and incubated at laboratory temperature (22°C) for 1 h. The amount of the bound secondary antibody was detected colorimetrically by an Opti-4CN Kit according to the manufacturer's manual.
A general note: Immunoblotting shows a protein as a band on a membrane.

In assay [3] the test system is 22Rv1 prostate carcinoma cells. Put plainly: MTT in vitro cytotoxicity, 22Rv1. Format: cell-based, human. As to conditions: 24 h treatment, read-out: IC50±S.E., 22Rv1. The method, then: as §1
Assay [4] has as its system polymorphonuclear cells infiltration in hind paw tissue. As to the kind of experiment: Ex vivo histological evaluation of hind paw tissue (HE staining, PMN infiltration). Format: in vivo, Wistar-SPF rats. As to conditions: 6 h after carrageenan, Indomethacin 5 mg/kg. How it is done:
The carrageenan-induced hind paw edema model was used for the determination of anti-inflammatory activity. Animals were i.p. pretreated with complexes 2, 4, and 5 (the dosages of the individual complexes were adjusted to contain the same amount of gold as in 10 mg/kg dose of Auranofin), Indomethacin (5 mg/kg), or 25% DMSO (v/v in water) 30 min prior to the injection of 1% λ-carrageenan solution (50 µL) into the plantar side of right hind paws of the rats. The paw volume was measured immediately after the carrageenan injection (this value was set-up as baseline value for the hind paw volume) and during the next 6 h after the administration of the edematogenic agent using a plethysmometer (model 7159, Ugo Basile, Varese, Italy). The degree of swelling was evaluated as a percentage of the change of the volume of the right hind paw after the carrageenan treatment from the baseline volume. A non-steroidal anti-inflammatory drug Indomethacin was used as a positive control and the obtained data were also compared with the previously reported profile of antiedematous activity for Auranofin [38]. After 6 h, the animals were sacrificed and the edematous feet were dissected, the tissue from the plantar parts was extracted, fixed and stained by a standard hematoxylin/eosin (HE) staining for cytological evaluation of polymorphonuclear cells infiltration.
To assess the tissue consequences connected with the reduction of inflammation caused by the tested compounds after the intraplantar injection of carrageenan, the histopathological observations were made on the tissue sections obtained from the laboratory animals after the plethysmometric experiments were finished. All animals were sacrificed by cervical dislocation, and immediately after that, the tissue samples were taken from the plantar area of hind paws. The histopathological changes in tissues, stained by the standard HE staining (see Figure 10), were evaluated by the presence of the inflammation infiltrate, which contained mainly neutrophils (polymorphonuclear cells - PMN).

Assay [5] deals with HeLa cervix epitheloid carcinoma cells. As to the kind of experiment: MTT in vitro cytotoxicity, HeLa. Type of assay: cell-based, human. Particulars: 24 h treatment, read-out: IC50±S.E., HeLa. How it is done: as §1
Assay [6] has as its system A2780R ovarian carcinoma cells resistant to cisplatin. As to the kind of experiment: MTT in vitro cytotoxicity, A2780R. Type of assay: cell-based, human. Particulars: 24 h treatment, MTT; read-out: IC50±S.E., A2780R. How it is done: as §1

As to `CC(C)Oc1ncnc2cc[n]([Au])c12.c1ccc(P(c2ccccc2)c2ccccc2)cc1` [complex 2, [Au(L2)(PPh3)]], the IC50 in assay [1] stood at 4 ± 0.2 µM; in assay [3] it was 4 ± 0.1 µM; in assay [5], 16 ± 0.2 µM; in assay [6] it was 5.3 ± 0.4 µM. The “effect on LPS-induced IκB degradation” value in assay [2] is reported as “block moderately the IκB degradation”. In addition, the “PMN (neutrophil) infiltrate in hind paw tissue sections” value in assay [4] was “mainly scarce and diffuse”.

Turning to `[Au][n]1ccc2ncnc(OCCc3ccccc3)c21.c1ccc(P(c2ccccc2)c2ccccc2)cc1` [complex 5], the IC50 is 4.4 ± 0.3 µM in assay [1], 3.7 ± 0.1 µM in assay [3], 22.8 ± 0.5 µM in assay [5] and 5 ± 0.3 µM in assay [6]. Also, the “effect on LPS-induced IκB degradation” value in assay [2] is “block moderately the IκB degradation”. The “PMN (neutrophil) infiltrate in hind paw tissue sections” value in assay [4] is reported as “massive presence of PMN cells”.
